Results from patent US11701355B2, “Levosimendan for treating pulmonary hypertension with heart failure with preserved ejection fraction (PH-HFpEF)” (Tenax Therapeutics, Inc., priority 2019, dated 2023).
Where “and” joins values, the source holds several entries; their conditions need not be identical. Identical values can stand only once.

Legend:
PH-HFpEF patients = test: HELP Study open-label lead-in phase: 24-hour levosimendan infusion, right heart catheterization at rest and 25 watt exercise; format: in vivo, human
From the text: Enrolled PH-HFpEF subjects receive a lead-in 24-hour levosimendan infusion to determine their hemodynamic response and eligibility for the double-blind phase of the study. A total of 36 “responders” are randomized in the double-blind, placebo-controlled phase. “Responders” are identified as those subjects with a ≥4 mmHg reduction in PCWP during bicycle exercise (25 watts) and no more than a 10% decrease in cardiac index between the baseline measurements and repeated measurements following the initial infusion.
Study drug is administered via i.v. infusion over 24 hours weekly through Week 5 via a PICC line. Infusions (Week 2-5) are done in the subject's home by a study nurse. Patients return to the study site for a visit between the Week 3 and Week 4 infusions for assessment of subject safety/response and need for dose adjustment. Each subject is to return on Week 6 for assessment of efficacy and safety on study drug. A right heart catheter will be inserted to obtain hemodynamic measurements at rest and exercise at baseline, the following day after the lead-in 24-hour infusion, and during Week 6.
During the Lead-in phase, levosimendan, supplied as a concentrated solution (2.5 mg/mL), is mixed with diluent and administered intravenously at 0.10 μg/kg/min for 24 hours +/−30 min.
Visits during the Lead-In phase of the trial require a subject to be hospitalized for the entire infusion period, which at a minimum will last 24 hours. Once the infusion is complete, hemodynamic measurements are collected to ensure subject eligibility. Visits for Week 2 through Week 6 are calculated based on the date of the Lead-in infusion.
During the Lead-in Infusion (Day 0) the following procedures are performed: Measure vital signs (BP, PR, respiratory rate, temperature), venous sheath placement for right heart catheterization (The sheath will remain following the baseline study, and the patient is hospitalized where they receive the 24-hour levosimendan infusion (preferably through the venous sheath). The sheath is then used for access for the right heart catheterization study following the 24-hour levosimendan infusion, and then removed), right heart catheterization measurements: baseline (prior to levosimendan infusion) and post 24-hour infusion to establish qualifying baseline hemodynamics at rest and exercise and to establish qualifying response to levosimendan during exercise, assess adverse events, assess concomitant medications and/or procedures, pharmacokinetic sampling (to be taken at the end of infusion: 24+/−2 hours), genotyping sampling (to be taken at the end of infusion: 24+/−2 hours). […] A PICC line is placed in patients that meet eligibility criteria and who are randomized into the Double-Blind phase of the study.

HFrEF patients = conditions: compared with placebo; cited from earlier work
[1] = parent drug, intravenous infusion; cited from earlier work
[2] = average of 30 patients, 25 watts exercise
[3] = average of 30 patients, rest legs down
[4] = first 30 randomized patients, 25 watts exercise
[5] = first 30 randomized patients, rest
[6] = individual patients, after 24-hour lead-in infusion, 25 watts exercise
[7] = individual patients, after 24-hour lead-in infusion, rest legs down
[8] = individual patients, post vs pre, 25 watts exercise
[9] = individual patients, post vs pre, rest legs down

C[C@@H]1CC(=O)NN=C1c1ccc(NN=C(C#N)C#N)cc1 [levosimendan, Levosimendan]
patients who exhibited a ≥4 mmHg decrease of PCWP (PH-HFpEF patients; acute (24 hours) open-label levosimendan, n=44): 85% | Exercise CO Change Avg (PH-HFpEF patients; [2]): 0.6 L/min | PCWP Exercise Change Avg (PH-HFpEF patients; [2]): −7.53 mmHg | RAP (Exercise) Change Avg (PH-HFpEF patients; [2]): −4.97 mmHg | mPAP Exercise Change Avg (PH-HFpEF patients; [2]): −5.1 mmHg | PCWP-Rest (down) Change Avg (PH-HFpEF patients; [3]): −5.800 mmHg | RAP (Rest-down) Change Avg (PH-HFpEF patients; [3]): −4.83 mmHg | Rest (down) CO Change Avg (PH-HFpEF patients; [3]): 0.33 L/min | mPAP Rest (down) Change Avg (PH-HFpEF patients; [3]): −5.4 mmHg | increase of cardiac output during 25 watts of exercise, average (PH-HFpEF patients; [4]): 0.60 L/min | reduction of mean pulmonary arterial pressure during 25 watts of exercise, average (PH-HFpEF patients; [4]): 5.1 mmHg | reduction of pulmonary capillary wedge pressure during 25 watts of exercise, average (PH-HFpEF patients; [4]): 7.53 mmHg | reduction of right atrial pressure during 25 watts of exercise, average (PH-HFpEF patients; [4]): 4.97 mmHg | increase of cardiac output during rest, average (PH-HFpEF patients; [5]): 0.33 L/min | reduction of mean pulmonary arterial pressure during rest, average (PH-HFpEF patients; [5]): 5.4 mmHg | reduction of pulmonary capillary wedge pressure during rest, average (PH-HFpEF patients; [5]): 5.8 mmHg | reduction of right atrial pressure during rest, average (PH-HFpEF patients; [5]): 4.83 mmHg | pulmonary capillary wedge pressure during rest after levosimendan, average (PH-HFpEF patients; first 30 randomized patients, rest, baseline 23.4): 17.6 mmHg | cardiac output during rest after levosimendan, average (PH-HFpEF patients; first 30 randomized patients, baseline 5.1): 5.5 L/min | cardiac output during 25 watts of exercise after levosimendan, average (PH-HFpEF patients; first 30 randomized patients, baseline 6.7): 7.4 L/min | right atrial pressure during rest after levosimendan, average (PH-HFpEF patients; first 30 randomized patients, baseline 16.2): 11.3 mmHg | right atrial pressure during 25 watts of exercise after levosimendan, average (PH-HFpEF patients; first 30 randomized patients, baseline 27.9): 23.0 mmHg | pulmonary capillary wedge pressure during 25 watts of exercise after levosimendan, average (PH-HFpEF patients; first 30 randomized patients, baseline 33.2): 25.7 mmHg | mean pulmonary arterial pressure during rest after levosimendan, average (PH-HFpEF patients; first 30 randomized patients, baseline 42.4): 37.0 mmHg | mean pulmonary arterial pressure during 25 watts of exercise after levosimendan, average (PH-HFpEF patients; first 30 randomized patients, baseline 58.3): 53.3 mmHg | Exercise CO Post (PH-HFpEF patients; [6]): 3.55 l/min and 3.25 l/min and 5.5 l/min and 5.05 l/min and 9.1 l/min (2×) and 4.68 l/min and 5.725 l/min and 5.9 l/min and 9 l/min and 7.65 l/min and 11.3 l/min and 7.9 l/min and 7.1 l/min and 12.8 l/min and 5.2 l/min and 8.0 l/min and 10.5 l/min and 4.2 l/min and 13.9 l/min and 7.2 l/min and 10.6 l/min and 11.1 l/min and 5.4 l/min and 6.5 l/min (2×) and 4.23 l/min and 6.93 l/min and 6.05 l/min and 7.7 l/min | PCWP Exercise Post (PH-HFpEF patients; [6]): 27 mmHg and 33 mmHg (2×) and 23 mmHg (2×) and 42 mmHg and 35 mmHg and 20 mmHg (2×) and 15 mmHg (2×) and 31 mmHg (2×) and 18 mmHg (4×) and 28 mmHg (4×) and 30 mmHg and 22 mmHg and 24 mmHg and 19 mmHg (2×) and 25 mmHg and 29 mmHg and 34 mmHg and 37 mmHg | RAP (Exercise) Post (PH-HFpEF patients; [6]): 34 mmHg and 17 mmHg (2×) and 10 mmHg and 20 mmHg (4×) and 16 mmHg (3×) and 24 mmHg and 36 mmHg and 18 mmHg and 12 mmHg (3×) and 22 mmHg and 29 mmHg (2×) and 25 mmHg (3×) and 28 mmHg (2×) and 19 mmHg and 38 mmHg (2×) and 37 mmHg and 26 mmHg | mPAP Exercise Post (PH-HFpEF patients; [6]): 52 mmHg (4×) and 47 mmHg (3×) and 67 mmHg and 48 mmHg and 40 mmHg and 80 mmHg and 57 mmHg and 38 mmHg (3×) and 35 mmHg and 50 mmHg and 55 mmHg and 51 mmHg (2×) and 58 mmHg and 27 mmHg and 60 mmHg and 66 mmHg and 36 mmHg and 81 mmHg and 68 mmHg (2×) and 75 mmHg and 62 mmHg | RAP (Rest-down) Post (PH-HFpEF patients; [7]): 17 mmHg and 5 mmHg and 4 mmHg and 12 mmHg (6×) and 7 mmHg and 18 mmHg (2×) and 3 mmHg and 8 mmHg (2×) and 9 mmHg (2×) and 13 mmHg (2×) and 10 mmHg (3×) and 11 mmHg (2×) and 15 mmHg (2×) and 1 mmHg and 14 mmHg and 19 mmHg and 20 mmHg | Rest (down) CO Post-Levo (PH-HFpEF patients; [7]): 3.0 l/min and 3.2 l/min and 4.5 l/min and 3.8 l/min (2×) and 6.9 l/min and 6.2 l/min and 4.2 l/min and 5.2 l/min and 6.5 l/min (2×) and 5.3 l/min (3×) and 5.6 l/min and 7.6 l/min and 4.1 l/min and 6.0 l/min and 8.6 l/min and 5.9 l/min and 4.3 l/min and 6.4 l/min and 4.0 l/min and 11.0 l/min and 4.7 l/min and 4.4 l/min and 3.9 l/min and 5.4 l/min and 5.8 l/min and 7.0 l/min | mPAP Rest (down) Post-Levo (PH-HFpEF patients; [7]): 45 mmHg and 27 mmHg and 35 mmHg (2×) and 25 mmHg and 21 mmHg (2×) and 65 mmHg and 38 mmHg and 28 mmHg (2×) and 37 mmHg (2×) and 30 mmHg (2×) and 42 mmHg and 41 mmHg and 26 mmHg (2×) and 46 mmHg and 24 mmHg (2×) and 29 mmHg and 34 mmHg and 32 mmHg and 62 mmHg and 57 mmHg (2×) and 59 mmHg and 49 mmHg | PCWP-Rest (down) Post-Levo (PH-HFpEF patients; individual patients, n=30 responders, after 24-hour lead-in infusion, rest legs down): 17 mmHg (6×) and 19 mmHg (2×) and 12 mmHg (2×) and 21 mmHg (3×) and 18 mmHg and 23 mmHg (2×) and 14 mmHg (3×) and 16 mmHg (2×) and 29 mmHg and 8 mmHg (2×) and 22 mmHg and 20 mmHg (2×) and 15 mmHg and 13 mmHg and 27 mmHg | PCWP-Rest (down) Change (PH-HFpEF patients; individual patients, post vs pre levosimendan lead-in infusion, rest legs down): −3 mmHg (5×) and −8 mmHg and −11 mmHg (2×) and 1 mmHg and −12 mmHg (2×) and 3 mmHg and −6 mmHg (2×) and −18 mmHg and −13 mmHg (2×) and −2 mmHg (3×) and −5 mmHg (2×) and 2 mmHg and 0 mmHg and −10 mmHg and −9 mmHg and −14 mmHg and −1 mmHg (2×) and −4 mmHg | Exercise CO Change (PH-HFpEF patients; [8]): 0.4 l/min (2×) and 0.0 l/min (2×) and 0.8 l/min (3×) and −0.3 l/min (2×) and −0.2 l/min (2×) and 0.3 l/min and 1.7 l/min (2×) and 0.2 l/min (2×) and 1.8 l/min (2×) and 1.9 l/min and −1.7 l/min and 4.8 l/min and 1.5 l/min and 0.1 l/min and −0.5 l/min (2×) and −1.0 l/min and 0.9 l/min and 1.0 l/min and 1.4 l/min and 1.3 l/min | PCWP Exercise Change (PH-HFpEF patients; [8]): −8 mmHg (3×) and −7 mmHg (4×) and −13 mmHg and −5 mmHg (7×) and −10 mmHg and −4 mmHg (3×) and −22 mmHg and −14 mmHg (2×) and −6 mmHg (6×) and −9 mmHg (2×) | RAP (Exercise) Change (PH-HFpEF patients; [8]): −8 mmHg (5×) and −4 mmHg and −3 mmHg (3×) and −6 mmHg (2×) and −12 mmHg and −11 mmHg and 1 mmHg (3×) and −18 mmHg and −9 mmHg and −5 mmHg (2×) and −14 mmHg and −2 mmHg (3×) and 3 mmHg and 6 mmHg and 0 mmHg (2×) and −15 mmHg and −1 mmHg | mPAP Exercise Change (PH-HFpEF patients; [8]): −7 mmHg and −3 mmHg (4×) and −15 mmHg (2×) and −5 mmHg (2×) and 2 mmHg and −22 mmHg and −13 mmHg (2×) and 4 mmHg (2×) and −8 mmHg (2×) and −9 mmHg and 12 mmHg and −4 mmHg (2×) and −2 mmHg and 1 mmHg (3×) and 6 mmHg and −11 mmHg and −12 mmHg (2×) and −6 mmHg | RAP (Rest-down) Change (PH-HFpEF patients; [9]): −3 mmHg (3×) and −4 mmHg (5×) and 0 mmHg (3×) and −5 mmHg (6×) and 1 mmHg and −23 mmHg and −1 mmHg and −7 mmHg (3×) and −6 mmHg (2×) and −2 mmHg (2×) and −9 mmHg (2×) and −8 mmHg | Rest (down) CO Change (PH-HFpEF patients; [9]): 0.17 l/min and 0.23 l/min (2×) and 0.27 l/min and 0.43 l/min and 1.06 l/min (2×) and 0.05 l/min and 0.62 l/min and 1.40 l/min and −0.07 l/min and 0.67 l/min and 2.03 l/min and −0.97 l/min and 1.03 l/min and 1.60 l/min and 0.00 l/min and 0.20 l/min and −0.53 l/min (2×) and 0.07 l/min and −0.47 l/min and 0.13 l/min and −1.07 l/min and −1.87 l/min and −0.30 l/min and 0.85 l/min and 1.50 l/min and 1.20 l/min and 0.87 l/min | mPAP Rest (down) Change (PH-HFpEF patients; [9]): −5 mmHg (2×) and −8 mmHg (2×) and −11 mmHg (2×) and 1 mmHg and −10 mmHg (2×) and 5 mmHg (3×) and −2 mmHg (2×) and −22 mmHg and −12 mmHg (2×) and 2 mmHg (2×) and −9 mmHg (4×) and 3 mmHg and −6 mmHg and −4 mmHg and −13 mmHg and −14 mmHg and 6 mmHg and 0 mmHg | cardiac output, stroke volume, ejection fraction, and heart rate (HFrEF patients): increased | systolic blood pressure, diastolic blood pressure, pulmonary capillary wedge pressure, right atrial pressure, and peripheral vascular resistance (HFrEF patients): reduced | half-life [1]: approximately 1 hour
